# According to patent US7592329B2, “Crystalline complexes of fluticasone-2-furoate” (Glaxo Group Limited, priority 2003, dated 2009):
# “Also recorded” adds a separate entry of the source.
# Columns and labels:
# thymus involution = experiment: Rat model of thymus involution; assay type: in vivo; settings: 3 daily IT doses of 100 μg
# rat hepatocytes = experiment: In vitro metabolism in rat hepatocytes; assay type: in vitro ADME; settings: 17-β carboxylic acid (X) the only significant metabolite
# [1] = Pharmacokinetics after intra-tracheal dry powder dosing in the pig; assay type: in vivo; settings: for time after dosing up to which quantifiable in plasma: anaesthetised pigs, 1 mg intra-tracheal, LLOQ 10 pg/mL compound (I), 20 pg/mL fluticasone propionate
# Protocol: Serial blood samples were taken for up to 8 h following dosing.
# [2] = Pharmacokinetics after intravenous (IV) and oral dosing in rats; assay type: in vivo, male Wistar Han rats; settings: rat
# [3] = Lung absorption (mean absorption time) in man; assay type: in vivo; settings: average; for time taken for 90% of lung dose to be absorbed: mathematical deconvolution of plasma concentration time data
# human hepatocytes = experiment: In vitro metabolism in human hepatocytes; assay type: in vitro ADME; settings: 17-β carboxylic acid (X) the only significant metabolite
# human lung tissue = experiment: In vitro human lung tissue affinity experiments; assay type: in vitro ADME
# [4] = Pharmacokinetics after intravenous administration in the anaesthetised pig; assay type: in vivo; settings: IV mixture of the two compounds at 0.1 mg/kg
# Description: The clearance of these two glucocorticoids is similar is this experimental pig model.
# [5] = tested on: human bronchial epithelial cells; experiment: Cell transport and accumulation studies using human bronchial epithelial cells; assay type: in vitro ADME
# glucocorticoid receptor = target: T1, glucocorticoid receptor (Homo sapiens, UniProt P04150); experiment: In vitro functional glucocorticoid assays, metabolite versus parent; assay type: cell-based
# T1 sequence (P04150 1-777): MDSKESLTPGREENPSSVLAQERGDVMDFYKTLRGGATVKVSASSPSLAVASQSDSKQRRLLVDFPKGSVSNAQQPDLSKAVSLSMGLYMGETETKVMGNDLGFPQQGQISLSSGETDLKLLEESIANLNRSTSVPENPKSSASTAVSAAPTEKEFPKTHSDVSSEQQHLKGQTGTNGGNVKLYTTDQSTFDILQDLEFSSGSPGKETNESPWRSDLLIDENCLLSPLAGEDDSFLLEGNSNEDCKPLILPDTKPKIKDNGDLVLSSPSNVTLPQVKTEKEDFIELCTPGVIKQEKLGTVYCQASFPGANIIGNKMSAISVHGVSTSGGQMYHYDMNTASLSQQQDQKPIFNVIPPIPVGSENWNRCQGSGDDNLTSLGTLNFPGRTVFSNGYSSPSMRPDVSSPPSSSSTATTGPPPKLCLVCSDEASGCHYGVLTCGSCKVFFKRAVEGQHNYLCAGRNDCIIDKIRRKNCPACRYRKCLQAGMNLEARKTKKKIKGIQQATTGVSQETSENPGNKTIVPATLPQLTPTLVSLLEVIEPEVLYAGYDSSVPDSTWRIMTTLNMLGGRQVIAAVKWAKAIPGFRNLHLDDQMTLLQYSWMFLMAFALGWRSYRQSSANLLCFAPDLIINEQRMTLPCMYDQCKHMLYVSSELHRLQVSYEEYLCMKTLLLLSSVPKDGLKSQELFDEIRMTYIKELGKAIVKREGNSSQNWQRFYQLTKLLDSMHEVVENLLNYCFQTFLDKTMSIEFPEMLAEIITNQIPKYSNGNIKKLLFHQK
# Protocol: Compound (I) undergoes highly efficient hepatic metabolism to yield the 17-β carboxylic acid (X) as the sole major metabolite in rat and human in vitro systems.
# Pharmacological activity was assessed in a functional in vitro assay of glucocorticoid agonist activity which is generally predictive of anti-inflammatory or anti-allergic activity in vivo.
# The functional assay was based on that described by K. P. Ray et al., Biochem J. (1997), 328, 707-715. A549 cells stably transfected with a reporter gene containing the NF-κB responsive elements from the ELAM gene promoter coupled to sPAP (secreted alkaline phosphatase) were treated with test compounds at appropriate doses for 1 hour at 37° C. The cells were then stimulated with tumour necrosis factor (TNF, 10 ng/ml) for 16 hours, at which time the amount of alkaline phosphatase produced is measured by a standard colourimetric assay. […]
# In a variant of the above method, to monitor these functions, two reporter plasmids have been generated and introduced separately into A549 human lung epithelial cells by transfection. […] After incubation for 1 h 0.5 ng/ml TNFα (R&D Systems) was added and after a further 15 hours at 37° C., the levels of firefly and renilla luciferase were measured using the Packard Firelite kit following the manufacturers' directions. Dose response curves were constructed from which EC50 values were determined.
# [6] = target: glucocorticoid receptor (GR) (Homo sapiens, UniProt P04150); experiment: Transactivation (GR) renilla luciferase reporter assay in A549 cells; assay type: cell-based; settings: GRE renilla luciferase reporter, read-out: Transactivation (GR) ED50
# Description: The glucocorticoid receptor (GR) can function in at least two distinct mechanisms, by upregulating gene expression through the direct binding of GR to specific sequences in gene promotors, and by downregulating gene expression that is being driven by other transcription factors (such as NFκB or AP-1) through their direct interaction with GR.
# The first cell line contains the firefly luciferase reporter gene under the control of a synthetic promoter that specifically responds to activation of the transcription factor NFκB when stimulated with TNFα. The second cell line contains the renilla luciferase reporter gene under the control of a synthetic promotor that comprises 3 copies of the consensus glucocorticoid response element, and which responds to direct stimulation by glucocorticoids. Simultaneous measurement of transactivation and transrepression was conducted by mixing the two cell lines in a 1:1 ratio in 96 well plate (40,000 cells per well) and growing overnight at 37° C. Test compounds were dissolved in DMSO, and added to the cells at a final DMSO concentration of 0.7%. After incubation for 1 h 0.5 ng/ml TNFα (R&D Systems) was added and after a further 15 hours at 37° C., the levels of firefly and renilla luciferase were measured using the Packard Firelite kit following the manufacturers' directions. Dose response curves were constructed from which EC50 values were determined.
SMILES,reduction of thymus weight (thymus involution) [%],manner of metabolism (rat hepatocytes),time after dosing up to which quantifiable in plasma [1],systemic exposure compared with fluticasone propionate ([1]; dry powder delivery to the lungs of anaesthetised pigs),"bioavailability ([2]; male, Wistar Han, plasma, oral, 0.1 mg/kg, oral 0.1 mg/kg vs IV 0.1 mg/kg) [%]",plasma clearance (in words) ([2]; in vivo),mean absorption time (MAT) [3] [h],time taken for 90% of lung dose to be absorbed [3] [h],manner of metabolism (human hepatocytes),affinity for human lung tissue (human lung tissue),clearance compared with fluticasone propionate [4],accumulation within the cell layer compared with fluticasone propionate [5],flux across the cell layer compared with fluticasone propionate [5],fold less active than the parent compound (glucocorticoid receptor) [fold],EC50 [6] [nM]
"C[C@@H]1CC2C3C[C@H](F)C4=CC(=O)C=C[C@]4(C)[C@@]3(F)[C@@H](O)C[C@]2(C)[C@@]1(OC(=O)c1ccco1)C(=O)SCF (stereo partly drawn) [Compound of Formula (I), 6α,9α-Difluoro-17α-[(2-furanylcarbonyl)oxy]-11β-hydroxy-16α-methyl-3-oxo-androsta-1,4-diene-17β-carbothioic acid S-fluoromethyl ester]",67,metabolised in an identical manner to fluticasone propionate,up to 2 hours,markedly reduced systemic exposure; also recorded: significantly lower exposure,0.9,approaching hepatic blood flow,12,21,metabolised in an identical manner to fluticasone propionate,significantly higher affinity,similar,greater accumulation,reduced flux,–,–
"CCC(=O)O[C@]1(C(=O)SCF)[C@H](C)C[C@H]2[C@@H]3C[C@H](F)C4=CC(=O)C=C[C@]4(C)[C@@]3(F)[C@@H](O)C[C@@]21C [Fluticasone propionate, 6α,9α-Difluoro-17α-(1-oxopropoxy)-11β-hydroxy-16α-methyl-3-oxo-androsta-1,4-diene-17β-carbothioic acid S-fluoromethyl ester, reference compound]",78,–,up to 8 hours,–,–,–,2.1,11,–,–,–,–,–,–,–
C[C@@H]1CC2C3C[C@H](F)C4=CC(=O)C=C[C@]4(C)[C@@]3(F)[C@@H](O)C[C@]2(C)[C@@]1(OC(=O)c1ccco1)C(=O)O (stereo partly shown) [Metabolite (X)],–,–,–,–,–,–,–,–,–,–,–,–,–,> 1000,> 250
